Experimental data reported in EP0973746B1, “SUBSTITUTED 3-CYANO QUINOLINES” (Wyeth Holdings Corporation, priority 1997, dated 1998).
pIC50: −log10 of the molar value. In brackets after ≈: the same amount, converted by molar mass.

How the values were obtained:
A431 [1] = assay: Inhibition of cell growth by incorporation of [3H]-thymidine, A431; assay type: cell-based, human; conditions: Homo sapiens
HTB161 = assay: Inhibition of cancer cell growth as measured by cell number, HTB161; assay type: cell-based; conditions: Homo sapiens, 48 h, read-out: IC50 HTB161
A27805 = assay: Inhibition of cancer cell growth as measured by cell number, A27805; assay type: cell-based; conditions: Homo sapiens, 48 h, read-out: IC50 A27805
A2780DDP = assay: Inhibition of cancer cell growth as measured by cell number, A2780DDP; assay type: cell-based; conditions: Homo sapiens, 48 h, read-out: IC50 A2780DDP
MIP = assay: Inhibition of cancer cell growth as measured by cell number, MIP; assay type: cell-based; conditions: Homo sapiens; cell number, Sulforhodamine B, 48 hours exposure; Table 4; read-out: IC50 MIP
SW620 = assay: Inhibition of cancer cell growth as measured by cell number, SW620; assay type: cell-based, human; conditions: Homo sapiens, SW-620, 48 h, read-out: IC50 SW620, cell number, Sulforhodamine B, 48 hours exposure; Table 4;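 note: SW620 was included as a cell line with little or no EGFR or HER2/neu expression, in contrast to receptor-overexpressing lines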
From the text: (§1) The cell lines were chosen since they overexpressed epidermal growth factor receptor (EGFR) (i.e. A431) or HER2/neu (SKBR3), or had little to no expression of the these receptors (SW620, LOX, MCF7).

COLO205 = assay: Inhibition of cancer cell growth as measured by cell number, COLO205; assay type: cell-based; conditions: Homo sapiens, COLO 205, 48 h, read-out: IC50 COLO205
CX1 = assay: Inhibition of cancer cell growth as measured by cell number, CX1; assay type: cell-based; conditions: Homo sapiens, CX-1, 48 h, read-out: IC50 CX1
CACO2 = assay: Inhibition of cancer cell growth as measured by cell number, CACO2; assay type: cell-based; conditions: Homo sapiens, Caco-2, 48 h, read-out: IC50 CACO2
HCT15 = assay: Inhibition of cancer cell growth as measured by cell number, HCT15; assay type: cell-based; conditions: Homo sapiens, HCT-15, 48 h, read-out: IC50 HCT15
LS174T = assay: Inhibition of cancer cell growth as measured by cell number, LS174T; assay type: cell-based; conditions: Homo sapiens, 48 h, read-out: IC50 LS174T
SW948 = assay: Inhibition of cancer cell growth as measured by cell number, SW948; assay type: cell-based; conditions: Homo sapiens, SW948, 48 h, read-out: IC50 SW948
CCL228 = assay: Inhibition of cancer cell growth as measured by cell number, CCL228; assay type: cell-based; conditions: Homo sapiens, 48 h, read-out: IC50 CCL228
MCF7 = assay: Inhibition of cancer cell growth as measured by cell number, MCF7; assay type: cell-based, human; conditions: Homo sapiens, MCF7, 48 h, read-out: IC50 MCF7, cell number, Sulforhodamine B, 48 hours exposure; Table 5;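 note: MCF7 was included as a line with little or no EGFR or HER2/neu expression, in contrast to the receptor-overexpressing lines of the panel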
From the text: as §1

B7474 = assay: Inhibition of cancer cell growth as measured by cell number, B7474; assay type: cell-based; conditions: Homo sapiens, 48 h, read-out: IC50 B7474
T47D = assay: Inhibition of cancer cell growth as measured by cell number, T47D; assay type: cell-based; conditions: Homo sapiens, 48 h, read-out: IC50 T47D
LX1 = assay: Inhibition of cancer cell growth as measured by cell number, LX1; assay type: cell-based; conditions: Homo sapiens, LX-1, 48 h, read-out: IC50 LX1
A549 = assay: Inhibition of cancer cell growth as measured by cell number, A549; assay type: cell-based; conditions: Homo sapiens, A549, 48 h, read-out: IC50 A549
LOX = assay: Inhibition of cancer cell growth as measured by cell number, LOX; assay type: cell-based, human; conditions: Homo sapiens, LOX, 48 h, read-out: IC50 LOX, cell number, Sulforhodamine B, 48 hours exposure; Table 6;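 note: LOX cells served as a line with low or absent EGFR and HER2/neu expression, in contrast to receptor-overexpressing lines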
From the text: as §1

A431 [2] = assay: Inhibition of cancer cell growth as measured by cell number, A431; assay type: cell-based, human; conditions: Homo sapiens, A-431, 48 h, read-out: IC50 A431, cell number, Sulforhodamine B, 48 hours exposure; Table 6;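 note: human A431 line, picked because it overexpresses epidermal growth factor receptor (EGFR)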
From the text: as §1

NEC = assay: Inhibition of cancer cell growth as measured by cell number, NEC; assay type: cell-based; conditions: Homo sapiens, 48 h, read-out: IC50 NEC
DU145 = assay: Inhibition of cancer cell growth as measured by cell number, DU145; assay type: cell-based; conditions: Homo sapiens, DU-145, 48 h, read-out: IC50 DU145
PC3 = assay: Inhibition of cancer cell growth as measured by cell number, PC3; assay type: cell-based; conditions: Homo sapiens, PC-3, 48 h, read-out: IC50 PC3
LNCAP = assay: Inhibition of cancer cell growth as measured by cell number, LNCAP; assay type: cell-based; conditions: Homo sapiens, 48 h, read-out: IC50 LNCAP
HL60 = assay: Inhibition of cancer cell growth as measured by cell number, HL60; assay type: cell-based; conditions: Homo sapiens, HL-60, 48 h, read-out: IC50 HL60
CCRF-CFM = assay: Inhibition of cancer cell growth as measured by cell number, CCRF-CFM; assay type: cell-based; conditions: Homo sapiens, 48 h, read-out: IC50 CCRF-CFM
SKBR3 = assay: Inhibition of cancer cell growth as measured by cell number, SKBR3; assay type: cell-based, human; conditions: Homo sapiens, SK-BR-3, 48 h, read-out: IC50 SKBR3, cell number, Sulforhodamine B, 48 hours exposure; Table 7;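 note: SK-BR-3 cells were selected as a line overexpressing HER2/neu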
From the text: as §1

[3] = molecular target: recombinant human MEK 1 (MAPKK) and recombinant human ERK2 (MAPK); assay: Mitogen Activated Protein Kinase (MAPK) assay, two component coupled MEK 1 / ERK2; assay type: biochemical; conditions: separate entries for the same compound = evaluated more than one time;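 note: MEK 1-activated ERK2 phosphorylates MBP or Myc peptide with 33P-ATP, filter capture and scintillation counting, inhibitor preincubated with ERK2 30 min at 0 °C, inhibition relative to uninhibited control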

SMILES | pIC50 (A431 [1]; A-431, read-out: IC50 A431) | IC50 (HTB161) [mg/L] | IC50 (A27805) [mg/L] | IC50 (A2780DDP) [mg/L] | IC50 (MIP) [mg/L] | IC50 (SW620) [mg/L] | IC50 (COLO205) [mg/L] | IC50 (CX1) [mg/L] | IC50 (CACO2) [mg/L] | IC50 (HCT15) [mg/L] | IC50 (LS174T) [mg/L] | IC50 (SW948) [mg/L] | IC50 (CCL228) [mg/L] | IC50 (MCF7) [mg/L] | IC50 (B7474) [mg/L] | IC50 (T47D) [mg/L] | IC50 (LX1) [mg/L] | IC50 (A549) [mg/L] | IC50 (LOX) [mg/L] | IC50 (A431 [2]) [mg/L] | other results
N#Cc1cnc2ccc([N+](=O)[O-])cc2c1Nc1cccc(Br)c1 [Example 13, 4-[(3-Bromophenyl)amino]-6-nitro-3-quinolinecarbonitrile] | 4.30 | 97.1 (≈ 263 µM) | 9.94 (≈ 26.9 µM) | 57 (≈ 154 µM) | 7.8 (≈ 21.1 µM) | 100 (≈ 271 µM) | 45.8 (≈ 124 µM) | > 100 | 31.5 (≈ 85.4 µM) | 100 (≈ 271 µM) | 94 (≈ 255 µM) | > 100 | > 100 | 65 (≈ 176 µM) | 98.8 (≈ 268 µM) | 47.7 (≈ 129 µM) | > 100 | > 100 | > 100 | 91 (≈ 246 µM) | IC50 (NEC): > 100 mg/L; IC50 (DU145): 65.8 mg/L (≈ 178 µM); IC50 (PC3): > 100 mg/L; IC50 (LNCAP): > 100 mg/L; IC50 (HL60): 70.2 mg/L (≈ 190 µM); IC50 (CCRF-CFM): > 100 mg/L; IC50 (SKBR3): 100 mg/L (≈ 271 µM); pIC50 [3]: < 4.00
N#Cc1cnc2ccc(N)cc2c1Nc1cccc(Br)c1 [Example 14, 6-Amino-4-[(3-bromophenyl)amino]-3-quinolinecarbonitrile] | 7.00 | 1.79 (≈ 5.29 µM) | 3.59 (≈ 10.6 µM) | 5.92 (≈ 17.5 µM) | 6.19 (≈ 18.2 µM) | 88.8 (≈ 262 µM) | > 100 | 8.9 (≈ 26.2 µM) | 0.989 (≈ 2.91 µM) | 6.63 (≈ 19.5 µM) | 39.3 (≈ 116 µM) | > 100 | 39.4 (≈ 116 µM) | 80.7 (≈ 238 µM) | 20.6 (≈ 60.6 µM) | 7.39 (≈ 21.8 µM) | 69.6 (≈ 205 µM) | 7.68 (≈ 22.7 µM) | 2.81 (≈ 8.29 µM) | 1.5 (≈ 4.42 µM) | IC50 (NEC): 8.28 mg/L (≈ 24.4 µM); IC50 (DU145): 0.91 mg/L (≈ 2.68 µM); IC50 (PC3): 41.2 mg/L (≈ 122 µM); IC50 (LNCAP): 8.98 mg/L (≈ 26.5 µM); IC50 (HL60): 4.04 mg/L (≈ 11.9 µM); IC50 (CCRF-CFM): 7.6 mg/L (≈ 22.4 µM); IC50 (SKBR3): 43.6 mg/L (≈ 129 µM); pIC50 [3]: < 4.00
COc1cc2[nH]cc(C#N)c(=O)c2cc1OC [Example 33, 1,4-Dihydro-6,7-dimethoxy-4-oxo-3-quinolinecarbonitrile] |  |  |  |  |  |  |  |  |  |  |  |  |  |  |  |  |  |  |  |  | pIC50 (A431 [1]; A-431, [3H]-thymidine incorporation, A431, read-out: IC50 A431): 4.74
